Read-outs that look alike come from different tables or passages of the source.
Key:
[1] = Determination of stability in plasma in vitro, human plasma (LC-MS/MS); type: in vitro ADME; settings: same experimental conditions (human and mouse plasma)
How it was run: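 Compound at 1 µM final in human or mouse plasma (N = 2) at 37 °C; aliquots taken at 0 and preset time points into ice-cold precipitant with internal standard. Remaining compound measured semi-quantitatively by LC-MS/MS as analyte/internal-standard peak-area ratio.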

[2] = target: T1, mineralocorticoid receptor (MR) (Homo sapiens, UniProt P08235); assay: Assay for agonist activity on mineralocorticoid receptor (luciferase reporter, HEK293 cells transfected with pBIND-MR plasmid); type: cell-based; settings: for Target selectivity MR/GR: ratio of EC50 values
T1 sequence (P08235 726-984): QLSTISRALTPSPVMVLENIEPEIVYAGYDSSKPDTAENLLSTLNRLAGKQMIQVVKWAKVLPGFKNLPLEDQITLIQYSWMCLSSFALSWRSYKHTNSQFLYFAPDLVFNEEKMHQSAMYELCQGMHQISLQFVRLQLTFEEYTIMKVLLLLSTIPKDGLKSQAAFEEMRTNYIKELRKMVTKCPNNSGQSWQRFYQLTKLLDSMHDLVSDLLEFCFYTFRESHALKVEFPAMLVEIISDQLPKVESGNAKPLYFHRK
How it was run: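 HEK293 cells transiently transfected with pBIND-MR or pBIND-PR, seeded in phenol red-free DMEM with 5% charcoal-stripped serum. Compounds tested as 12-point 4-fold dilutions from 50 µM in duplicate, 0.1% DMSO blank. Luciferase luminescence read, EC50 by nonlinear fit.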

asthma model mice = assay: Anti-asthma pharmacodynamic experiment: airway hyperresponsiveness (Penh) after methacholine challenge; type: in vivo, female BALB/c mice; settings: compared with the model group
[3] = system: dry eye syndrome model New Zealand rabbits; assay: Dry eye syndrome experiment (benzalkonium chloride model): tear secretion test with phenol red cotton threads; type: in vivo, male New Zealand White rabbits; settings: compared with the model group
Experimental: Positive control drug: Fluorometholone Eye Drops (specification: 5 mL/5 mg; Santen Pharmaceutical (CHINA) Co., Ltd.; Lot No.: 1FM6625) was used as the positive control drug and stored at room temperature protected from light until use.
Thirty male New Zealand White rabbits (conventional grade) were prepared. Six rabbits were randomly selected as the blank control group, and the remaining animals were administered 0.1% benzalkonium chloride to the left eye twice daily (morning and evening) , 10 µL/animal each time. On day 6 of modeling, tear secretion was measured using phenol red cotton threads to determine whether the model was successfully established. […] During the administration, all animals except the blank control group were administered 10 µL of 0.1% benzalkonium chloride to the left eye once daily to maintain dry eye symptoms..
• Test time: D3, D7, D15; • Test animals: All animals were tested before grouping; all enrolled surviving animals were tested after administration; • Test method: Tear secretion was measured using phenol red cotton threads. The tear secretion test paper was folded and placed at the middle and outer 1/3 of the rabbit palpebral conjunctival sac for 1 min. The test paper was then removed, observed, and recorded for its wetting length. The test was repeated 3 times, and the values were averaged.
The normality and homogeneity of variance were tested by Levene's test. If there was no statistical significance (P > 0.05), one-way analysis of variance (ANOVA) was used for statistical analysis. If ANOVA was statistically significant (P ≤ 0.05), LSD test (parametric method) was used for comparative analysis. If the variance was heterogeneous (P ≤ 0.05), Kruskal-Wallis test was used. If the Kruskal-Wallis test was statistically significant (P ≤ 0.05), Dunnett's test (nonparametric method) was used for comparative analysis.

[4] = Pharmacokinetic (PK) experiment in rats; type: in vivo, male SD rats; settings: same experimental conditions
How it was run: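 Male SD rats dosed by body weight, oral group fasted overnight until 4 h post-dose. Jugular blood sampled 2 min–24 h into heparin; plasma analysed and PK parameters derived from concentration–time data.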

Row | SMILES | plasma instability [1] | EC50 [2] [nM] | Target selectivity MR/GR [2] | Effects on airway hyperresponsiveness (Penh values) in mice (asthma model mice) | tear secretion [3] | pharmacokinetic properties (plasma clearance rate, systemic exposure) [4] | EC50 ([2]; EC50 of agonist activity, HEK293 reporter cells, top concentration 50 µM, read-out: Nuclear receptor enzyme activity (nM) MR) [nM] | target selectivity ([2]; MR/GR and PR/GR, same experimental conditions)
1 | C[C@]12C=CC(=O)C=C1[C@@H](F)C[C@H]1[C@@H]3C[C@H]4OC(c5ccc(CSC6CCOC6=O)cc5)O[C@@]4(C(=O)OCF)[C@@]3(C)C[C@H](O)[C@@]12F (stereo partly drawn) [Compound 36, Fluoromethyl (2S,6aS,6bR,7S,8aS,8bS,11aR,12aS,12bS)-2,6b-difluoro-7-hydroxy-6a,8a-dimethyl-4-oxo-10-(4-( ((2-oxotetrahydrofuran-3-yl)thio)methyl)phenyl)-1,2,4,6a,6b,7,8,8a,11a,12,12a,12b-dodecahydro-8bH-naphtho[2',1':4,5]indeno[1,2-d][1,3]dioxole-8b-carboxylate] | exhibited the characteristic of plasma instability | > 50000 | > 4.2×10^5 | significantly decreased the Penh values in mice | significantly increased the tear secretion | pharmacokinetic properties similar to those of compound 8 |  | 
2 | C[C@]12C=CC(=O)C=C1[C@@H](F)C[C@H]1[C@@H]3C[C@H]4OC(c5ccc(CSC6CCOC6=O)cc5)O[C@@]4(C(=O)SCF)[C@@]3(C)C[C@H](O)[C@@]12F (stereo partly drawn) [Compound 34, S-(Fluoromethyl) (2S,6aS,6bR,7S,8aS,8bS,11aR,12aS,12bS)-2,6b-difluoro-7-hydroxy-6a,8a-dimethyl-4-oxo-10-(4-( ((2-oxotetrahydrofuran-3-yl)thio)methyl)phenyl)-1,2,4,6a,6b,7,8,8a,11a,12,12a,12b-dodecahydro-8bH-naphtho[2',1':4,5]indeno[1,2-d][1,3]dioxole-8b-carbothioate] | exhibited the characteristic of plasma instability | > 50000 | > 5.0×10^5 | significantly decreased the Penh values in mice | significantly increased the tear secretion | pharmacokinetic properties similar to those of compound 8 |  | 
3 | C[C@]12C=CC(=O)C=C1CC[C@H]1[C@@H]3C[C@H]4OC(c5ccc(COC6CCOC6=O)cc5)O[C@@]4(C(=O)CO)[C@@]3(C)C[C@H](O)[C@@]12Cl (stereo partly drawn) [Compound 22, (6aS,6bR,7S,8aS,8bS,11aR,12aS,12bS)-6b-Chloro-7-hydroxy-8b-(2-hydroxyacetyl)-6a,8a-dimethyl-10-(4-(((2-oxotetrahydrofuran-3-yl)oxy)methyl)phenyl)-1,2,6a,6b,7,8,8a,8b,11a,12,12a,12b-do decahydro-4H-naphtho[2',1':4,5]indeno[1,2-d][1,3]dioxol-4-one] | exhibited the characteristic of plasma instability | > 50000 | > 9.1×10^4 | significantly decreased the Penh values in mice | significantly increased the tear secretion | pharmacokinetic properties similar to those of compound 8 |  | 
4 | C[C@]12C=CC(=O)C=C1CC[C@H]1[C@@H]3C[C@H]4OC(c5ccc(CSC6CCOC6=O)cc5)O[C@@]4(C(=O)CO)[C@@]3(C)C[C@H](O)[C@@]12F (stereo partly drawn) [Compound 17, (6aS,6bR,7S,8aS,8bS,11aR,12aS,12bS)-6b-Fluoro-7-hydroxy-8b-(2-hydroxyacetyl)-6a,8a-dimethyl-10-(4-(((2-oxotetrahydrofuran-3-yl)thio)methyl)phenyl)-1,2,6a,6b,7,8,8a,8b,11a,12,12a,12b-do decahydro-4H-naphtho[2',1':4,5]indeno[1,2-d][1,3]dioxol-4-one] | exhibited the characteristic of plasma instability |  | > 1.7×10^5 | significantly decreased the Penh values in mice | significantly increased the tear secretion | pharmacokinetic properties similar to those of compound 8 | > 50000 | 
5 | C[C@]12C=CC(=O)C=C1CC[C@H]1[C@@H]3C[C@H]4OC(c5ccc(CSC6CCOC6=O)nc5)O[C@@]4(C(=O)CO)[C@@]3(C)C[C@H](O)[C@@]12Cl (stereo partly drawn) [Compound 48, (6aS,6bR,7S,8aS,8bS,11aR,12aS,12bS)-6b-Chloro-7-hydroxy-8b-(2-hydroxyacetyl)-6a,8a-dimethyl-10-(6-(((2-oxotetrahydrofuran-3-yl)thio)methyl)pyridin-3-yl)-1,2,6a,6b,7,8,8a,8b,11a,12,12a,12 b-dodecahydro-4H-naphtho[2',1':4,5]indeno[1,2-d][1,3]dioxol-4-one] | exhibited the characteristic of plasma instability |  |  | significantly decreased the Penh values in mice | significantly increased the tear secretion | pharmacokinetic properties similar to those of compound 8 |  | target selectivity comparable to that of compound 23

Source: EP4635969A1, “NOVEL GLUCOCORTICOID, METHOD FOR PREPARING SAME, AND USE THEREOF” (Tianjin Pharmaceutical Biotechnology Co., Ltd., priority 2022, dated 2024)
